Measured values: US11674962B2, “Therapeutic and diagnostic methods for cancer” (Genentech, Inc., priority 2017, dated 2023)

System: locally advanced or metastatic non-small cell lung cancer (NSCLC)
Experiment: OAK phase III clinical trial (NCT02008227): atezolizumab vs docetaxel, outcomes by bTMB score and PD-L1 IHC
Format: in vivo, human
Description: A blood-based assay was used to evaluate the association between clinical response to treatment with atezolizumab (MPDL3280A) and blood tumor mutational burden (bTMB) score in patients with non-small cell lung cancer (NSCLC) enrolled in two clinical trials, a phase II clinical trial, POPLAR (Clinical Trial ID No.: NCT01903993), and a phase III clinical trial, OAK (Clinical Trial ID No.: NCT02008227), in which atezolizumab was administered as a monotherapy.
Pre-treatment blood samples from patients with NSCLC who were enrolled in the POPLAR and/or the OAK studies, in which atezolizumab was administered as a monotherapy, were evaluated for bTMB score and/or maximum somatic allele frequency (MSAF).
The OAK (Clinical Trial ID No.: NCT02008227) patient population evaluated for bTMB score consisted of 583 patients. Patients were eligible for enrollment in the OAK study if they had locally advanced or metastatic (e.g., stage IIIB, stage IV, or recurrent) NSCLC; disease progression during or following treatment with a prior platinum-containing regimen for locally advanced, unresectable/inoperable, or metastatic NSCLC, or disease recurrence within 6 months of treatment with a platinum-based adjuvant/neoadjuvant regimen; measurable disease, as defined by RECIST v1.1; and an ECOG performance status of 0 or 1. Participants were randomized to receive either atezolizumab at a dose of 1200 mg intravenously every three weeks or docetaxel 75 mg per square meter (mg/m^2) intravenously every three weeks. Treatment with atezolizumab could be continued as long as participants were experiencing clinical benefit, i.e., in the absence of unacceptable toxicity or symptomatic deterioration attributed to disease progression.
Analysis of bTMB was performed retrospectively. Progression-free survival (PFS) was defined as the time between date of randomization and date of first documented disease progression as assessed by the investigator using RECIST v.1.1 or death from any cause, whichever occurred first. Overall survival (OS) was defined as the time between the date of randomization until death due to any cause. Treatment arms were compared for OS and PFS individually using a univariate Cox regression model without stratification in the biomarker evaluable-population (BEP) and their subgroups or using a stratified (by randomization stratification factors) Cox model in the ITT population. No multiplicity correction was applied to p-values or confidence intervals (CI). Kaplan-Meier methodology was used to estimate median OS and PFS and construct survival curves.
In the OAK ITT population (N=850), 797 samples were available for analysis. Of these samples, 13 were removed for sample contamination >1%; 42 were removed for median exon coverage <800×; and 100 were removed for low MSAF<1%.
The OAK BEP (N=642) included 59 patients with EGFR mutation or ALK rearrangement, and 583 without known alterations.
To identify somatic mutations and calculate a bTMB score, whole blood samples obtained from each patient (collected in EDTA or Streck tubes) were processed through a series of spins to isolate plasma, from which cell free DNA (cfDNA) was extracted for sequencing analysis. Specifically, at least 20 ng purified cfDNA was used for library construction. Next-generation sequencing libraries using fragment barcodes and hybrid capture were constructed to analyze and sequence a pre-determined set of 394 genes that covered approximately 1.125 Mb of the exome. Specifically, purified libraries were hybrid captured using a 394-gene bait set and then further purified, pooled and loaded on an ILLUMINA® HISEQ® 4000 sequencing system. Sequenced libraries were aligned and sorted. In order to accurately call variants at low allele frequencies and minimize artifacts from sequencing, PCR, or DNA damage-related errors, sequenced libraries were processed by a cfDNA computational pipeline that corrected errors via the use of fragment barcodes. […]

[1] = OAK BEP with valid bTMB and PD-L1 IHC results, bTMB ≥16, n=156
[2] = OAK, bTMB score subgroup ≥10 (251 patients), atezolizumab vs docetaxel
[3] = OAK, bTMB score subgroup ≥16 (158 patients), atezolizumab vs docetaxel
[4] = OAK, bTMB score subgroup ≥20 (105 patients), atezolizumab vs docetaxel

In the case of atezolizumab, the “OS HR (95% CI)” value (OAK BEP with valid bTMB and PD-L1 IHC results, TC3 or IC3, n=103) is reported as 0.44 (0.27-0.71), the “OS HR (95% CI)” value [1] is reported as 0.64 (0.44-0.93) and the “PFS HR (95% CI)” value [1] is reported as 0.64 (0.46, 0.91). The “OS HR (95% CI)” value (OAK, BEP (n = 583), atezolizumab vs docetaxel) was 0.64, the “PFS HR (95% CI)” value (OAK, IHC− (complementary to TC1/2/3) and bTMB ≥16, n=93) was 0.78 and the “PFS HR (95% CI)” value (OAK, IHC− (complementary to TC1/2/3 or IC1/2/3) and bTMB ≥16, n=53) was 0.68. The “PFS HR (95% CI)” value (OAK, IHC− (complementary to TC2/3) and bTMB ≥16, n=110) was 0.69, the “PFS HR (95% CI)” value (OAK, IHC− (complementary to TC2/3 or IC2/3) and bTMB ≥16, n=94) was 0.65 and the “PFS HR (95% CI)” value (OAK, IHC− (complementary to TC3 or IC3) and bTMB ≥16, n=126) was 0.70. The “OS HR (95% CI)” value (OAK, ITT (n = 850), atezolizumab vs docetaxel) was 0.73, the “PFS HR (95% CI)” value (OAK, PD-L1 IHC TC0 and IC0 (bTMB evaluable), n=250) was 0.95 and the “PFS HR (95% CI)” value (OAK, PD-L1 IHC TC1/2/3, IHC+ (bTMB evaluable), n=192) was 0.65. For the same substance, the “PFS HR (95% CI)” value (OAK, PD-L1 IHC TC1/2/3 or IC1/2/3, IHC+ (bTMB evaluable), n=328) was 0.83, the “PFS HR (95% CI)” value (OAK, PD-L1 IHC TC2/3, IHC+ (bTMB evaluable), n=150) was 0.65 and the “PFS HR (95% CI)” value (OAK, PD-L1 IHC TC2/3 or IC2/3, IHC+ (bTMB evaluable), n=200) was 0.71. For the same substance, the “PFS HR (95% CI)” value (OAK, TC0 and IC0 and bTMB <16, n=197) was 1.03, the “PFS HR (95% CI)” value (OAK, TC0 and IC0 and bTMB ≥16, n=53) was 0.68 and the “PFS HR (95% CI)” value (OAK, TC1/2/3 and bTMB <16, n=129) was 0.72. The “PFS HR (95% CI)” value (OAK, TC1/2/3 and bTMB ≥16, n=63) was 0.55, the “PFS HR (95% CI)” value (OAK, TC1/2/3 or IC1/2/3 and bTMB <16, n=225) was 0.94 and the “PFS HR (95% CI)” value (OAK, TC1/2/3 or IC1/2/3 and bTMB ≥16, n=103) was 0.65. For the same substance, the “PFS HR (95% CI)” value (OAK, TC2/3 and bTMB <16, n=106) was 0.70, the “PFS HR (95% CI)” value (OAK, TC2/3 and bTMB ≥16, n=44) was 0.55 and the “PFS HR (95% CI)” value (OAK, TC2/3 or IC2/3 and bTMB <16, n=140) was 0.73. The “PFS HR (95% CI)” value (OAK, TC2/3 or IC2/3 and bTMB ≥16, n=60) was 0.65, the “PFS HR (95% CI)” value (OAK, TC3 or IC3 and bTMB <16, n=73) was 0.71 and the “OS HR” value [2] was 0.69. The “PFS HR” value [2] was 0.73, the “OS HR” value [3] was 0.64 and the “PFS HR” value [3] was 0.65. For the same substance, the “OS HR” value [4] was 0.65, the “PFS HR” value [4] was 0.61 and the “median OS” value (OAK, bTMB≥16, per treatment arm) was 13.5 months. The “best overall response rate” value (OAK, bTMB≥16 patients, per treatment arm) was 21%, the “PFS HR” value (OAK, reference bTMB score of 14 (Dx+, n=188), atezolizumab vs docetaxel) was 0.68 and the “PFS HR” value (OAK, reference bTMB score of 18 (Dx+, n=132), atezolizumab vs docetaxel) was 0.66.
